One assay concerns HCT116 MTAP KO cells. Description: Inhibitory activity against cell proliferation (CellTiter Glo, 6 days), HCT116 MTAP KO. Type of assay: cell-based. The settings on record: for IC50: Homo sapiens, HCT-116, 144 h, HCT116 MTAP KO cells, 6 days, CellTiter Glo, read-out: HCT116 MTAP KO IC50; for Selectivity HCT 116-WT/ HCT116 MTAP KO: ratio of IC50 HCT116-WT / HCT116 MTAP KO. In outline: (§1)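 Viability is measured by CellTiter Glo luminescence on day 7, following a 6-day treatment with compounds serially diluted 4-fold over 8 points from 10000 nM. Both lines are plated at 250 cells per well and cultured overnight beforehand.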
On the technique in general: In ATP-based viability assays light output follows the ATP content of the culture.

A further assay concerns HCT116-WT cells. As to the kind of experiment: Inhibitory activity against cell proliferation (CellTiter Glo, 6 days), HCT116-WT. Type of assay: cell-based. The settings on record: 144 h, HCT116-WT cells, 6 days, CellTiter Glo; read-out: HCT116-WT IC50. The procedure, abridged: as §1
For a further assay, the target named is PRMT5-MTA (Homo sapiens, UniProt O14744). Description: Enzymatic inhibitory activity against PRMT5-MTA (AlphaScreen). The assay is classed as biochemical. The settings on record: read-out: IC50. In outline: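 PRMT5/[…] (1 nM) was preincubated for 30 min at room temperature with 1 µM […] and 2.5 µM SAM, then exposed to compound (10-point, 3-fold from 1000 nM) for 15 min at 23 °C. Histone H4 substrate (5 nM) was added and reacted for 45 min at 23 °C. Symmetric dimethyl-R3 H4 was detected by AlphaScreen and IC50 calculated.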
(Bead proximity is the source of the signal in Alpha formats.)

The structures appear in SMILES notation.

PRMT5-MTA, sequence (O14744 whole entry): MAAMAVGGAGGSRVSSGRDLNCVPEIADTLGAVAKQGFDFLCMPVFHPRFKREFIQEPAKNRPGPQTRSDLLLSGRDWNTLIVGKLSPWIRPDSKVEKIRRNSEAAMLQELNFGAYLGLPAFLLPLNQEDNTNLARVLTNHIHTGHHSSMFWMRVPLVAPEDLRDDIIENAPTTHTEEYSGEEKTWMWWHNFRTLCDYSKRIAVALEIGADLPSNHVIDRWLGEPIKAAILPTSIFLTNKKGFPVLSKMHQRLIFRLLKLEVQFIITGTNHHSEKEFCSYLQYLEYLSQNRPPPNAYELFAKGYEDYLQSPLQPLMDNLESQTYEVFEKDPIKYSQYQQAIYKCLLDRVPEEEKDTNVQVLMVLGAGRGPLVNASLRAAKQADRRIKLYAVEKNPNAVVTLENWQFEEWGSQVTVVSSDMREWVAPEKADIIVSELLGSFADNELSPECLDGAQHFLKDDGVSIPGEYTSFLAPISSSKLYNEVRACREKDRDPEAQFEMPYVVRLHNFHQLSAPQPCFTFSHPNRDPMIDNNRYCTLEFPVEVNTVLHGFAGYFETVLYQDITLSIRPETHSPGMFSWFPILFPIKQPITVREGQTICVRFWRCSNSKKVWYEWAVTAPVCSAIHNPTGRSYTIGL
PRMT5-MTA, sequence (Q9BQA1 whole entry partner): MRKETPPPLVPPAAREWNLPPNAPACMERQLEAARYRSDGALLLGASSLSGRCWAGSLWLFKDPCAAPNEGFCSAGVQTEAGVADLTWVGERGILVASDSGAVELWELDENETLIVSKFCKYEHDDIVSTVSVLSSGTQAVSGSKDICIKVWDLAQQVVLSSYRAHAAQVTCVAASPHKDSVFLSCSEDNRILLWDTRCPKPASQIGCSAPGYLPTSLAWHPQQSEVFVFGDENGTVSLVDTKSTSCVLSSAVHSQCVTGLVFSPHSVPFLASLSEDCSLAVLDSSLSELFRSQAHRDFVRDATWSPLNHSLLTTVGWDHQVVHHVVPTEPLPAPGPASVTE

As to `Cc1cc2nc(N)c3cnn(C)c3c2cc1C(=O)N1CC(C)CN1c1ccc(F)cc1F` (centres unmarked) [Example 381, (4-amino-1,7-dimethyl-1H-pyrazolo[4,3-c]quinolin-8-yl)(2-(2,4-difluorophenyl)-4-methylpyrazolidin-1-yl)methanone], the IC50 is 63 nM in the assay with HCT116 MTAP KO cells, 2330 nM with HCT116-WT cells and 4 nM at PRMT5-MTA. Besides, the “Selectivity HCT 116-WT/ HCT116 MTAP KO” value with HCT116 MTAP KO cells amounted to 36.92.

Regarding `COc1nc(C)ccc1-c1ccc(CN(C(=O)c2ccc3nc(N)c(C)cc3c2)N(C)c2ncccn2)nc1` [Example 137, 2-amino-N-((2'-methoxy-6'-methyl-[3,3'-bipyridine]-6-yl)methyl)-N',3-dimethyl-N'-(pyrimidin-2-yl)quinoline-6-carbohydrazide], the figures for the IC50 with HCT116 MTAP KO cells, with HCT116-WT cells and on PRMT5-MTA were 110 nM, 1990 nM and 1.3 nM, respectively. Besides, in the assay with HCT116 MTAP KO cells, the “Selectivity HCT 116-WT/ HCT116 MTAP KO” value is 18.07.

In the case of `[2H]C([2H])([2H])c1cc2cc(C(=O)N(Cc3ccc(C(F)(F)F)cn3)N(C)c3ncccn3)ccc2nc1N` [Example 310, 2-amino-N'-methyl-3-(methyl-d3)-N'-(pyrimidin-2-yl)-N-((5-(trifluoromethyl)pyridin-2-yl)methyl)quinoline-6-carbohydrazide], the IC50 amounted to 33 nM in the assay with HCT116 MTAP KO cells, 1120 nM with HCT116-WT cells and 1.8 nM on PRMT5-MTA. Also, the “Selectivity HCT 116-WT/ HCT116 MTAP KO” value in the assay on HCT116 MTAP KO cells amounted to 34.09.

As to `Cc1cc2cc(C(=O)N(Cc3ccc(-c4cnn(C(F)(F)F)c4)cn3)N(c3ncccn3)C3CC3)ccc2nc1N` [Example 216, 2-amino-N'-cyclopropyl-3-methyl-N'-(pyrimidin-2-yl)-N-((5-(1-(trifluoromethyl)-1H-pyrazol-4-yl)pyridin-2-yl)methyl)qui noline-6-carbohydrazide], the results for the IC50 in the assay on HCT116 MTAP KO cells, in the assay with HCT116-WT cells and on PRMT5-MTA were 23 nM, 627 nM and 3.3 nM, respectively. The “Selectivity HCT 116-WT/ HCT116 MTAP KO” value in the assay with HCT116 MTAP KO cells was 27.26.

Regarding `Cc1ncc(-c2cnc(N3CC(C)CN3C(=O)c3cc4c(cc3C)nc(N)c3cnn(C)c34)c(F)c2)cn1` (centres unmarked) [Example 477, (4-amino-1,7-dimethyl-1H-pyrazolo[4,3-c]quinolin-8-yl)(2-(3-fluoro-5-(2-methylpyrimidin-5-yl)pyridin-2-yl)-4-methylpyrazolidin-1-yl)methanone], the figures for the IC50 in the assay on HCT116 MTAP KO cells, in the assay with HCT116-WT cells and at PRMT5-MTA were 28 nM, 1460 nM and 4.7 nM, respectively. In addition, the “Selectivity HCT 116-WT/ HCT116 MTAP KO” value in the assay with HCT116 MTAP KO cells was determined as 52.00.

Consider `[2H]C([2H])([2H])N(c1ncccn1)N(Cc1ccc(C(F)(F)F)cn1)C(=O)c1ccc2nc(N)c(C)cc2c1` [Example 2, 2-amino-3-methyl-N'-(methyl-d3)-N'-(pyrimidin-2-yl)-N-((5-(trifluoromethyl)pyridin-2-yl)methyl)quinoline-6-carbohydrazide], for which the figures for the IC50 with HCT116 MTAP KO cells, in the assay on HCT116-WT cells and on PRMT5-MTA were 30 nM, 820 nM and 2.1 nM, respectively. The “Selectivity HCT 116-WT/ HCT116 MTAP KO” value in the assay with HCT116 MTAP KO cells stood at 27.33.

`Cc1cc2cc(C(=O)N(Cc3ccc(-c4ccc(N)nc4)cn3)N(C)c3ncccn3)ccc2nc1N` [Example 144, 2-amino-N-((6'-amino-[3,3'-bipyridine]-6-yl)methyl)-N',3-dimethyl-N'-(pyrimidin-2-yl)quinoline-6-carbohydrazide]: the IC50 turned out to be 26 nM in the assay on HCT116 MTAP KO cells, 616 nM in the assay with HCT116-WT cells and 1.5 nM on PRMT5-MTA. The “Selectivity HCT 116-WT/ HCT116 MTAP KO” value in the assay with HCT116 MTAP KO cells came to 23.69.

On to `Cc1cc2cc(C(=O)N(Cc3ccc(C4CCC4)cn3)N(C)c3ncccn3)ccc2nc1N` [Example 289, 2-amino-N-((5-cyclobutylpyridin-2-yl)methyl)-N',3-dimethyl-N'-(pyrimidin-2-yl)quinoline-6-carbohydrazide], for which the IC50 in the assay with HCT116 MTAP KO cells is 53 nM; with HCT116-WT cells, 691 nM; at PRMT5-MTA it was 0.9 nM. Further, the “Selectivity HCT 116-WT/ HCT116 MTAP KO” value in the assay on HCT116 MTAP KO cells stood at 13.04.

Regarding `Cc1cc2nc(N)c3cnn(C)c3c2cc1C(=O)N1CC(C)CN1c1cccc(Br)n1` (centres unmarked) [Example 404, (4-amino-1,7-dimethyl-1H-pyrazolo[4,3-c]quinolin-8-yl)(2-(6-bromopyridin-2-yl) -4-methylpyrazolidin-1-yl)methanone], the IC50 in the assay with HCT116 MTAP KO cells was found to be 4.6 nM; in the assay on HCT116-WT cells, 114 nM; at PRMT5-MTA, 6.6 nM. In addition, in the assay with HCT116 MTAP KO cells, the “Selectivity HCT 116-WT/ HCT116 MTAP KO” value worked out at 24.78.

In the case of `Cc1cc2cc(C(=O)N(Cc3ccc(-c4cnc(C(F)(F)F)s4)cn3)N(C)c3ncccn3)ccc2nc1N` [Example 244, 2-amino-N',3-dimethyl-N'-(pyrimidin-2-yl)-N-((5-(2-(trifluoromethyl)thiazol-5-yl)pyridin-2-yl)methyl)quinoline-6-carbohydrazide], the IC50 with HCT116 MTAP KO cells is 41 nM; with HCT116-WT cells it was 581 nM; on PRMT5-MTA it was 4.2 nM. Further, the “Selectivity HCT 116-WT/ HCT116 MTAP KO” value in the assay on HCT116 MTAP KO cells is 14.17.

In the case of `Cc1nc(C)c(-c2ccc(CN(C(=O)c3ccc4nc(N)c(C)cc4c3)N(c3ncccn3)C3CC3)nc2)s1` [Example 158, 2-amino-N'-cyclopropyl-N-((5-(2,4-dimethylthiazol-5-yl)pyridin-2-yl)methyl)-3-m ethyl-N'-(pyrimidin-2-yl)quinoline-6-carb ohydrazide], the IC50 with HCT116 MTAP KO cells amounted to 12 nM; in the assay with HCT116-WT cells, 225 nM; on PRMT5-MTA it was 4.5 nM. Also, in the assay on HCT116 MTAP KO cells, the “Selectivity HCT 116-WT/ HCT116 MTAP KO” value came to 18.75.

As to `Cc1cc2nc(N)c3cnn(C)c3c2cc1C(=O)N1CCCN1c1ccc(C(F)(F)F)cn1` [Example 338, (4-amino-1,7-dimethyl-1H-pyrazolo[4,3-c]quinolin-8-yl)(2-(5-(trifluoromethyl)pyridin-2-yl)pyrazolidin-1-yl)methanone], the IC50 in the assay with HCT116 MTAP KO cells is 153 nM; in the assay with HCT116-WT cells, 3770 nM; at PRMT5-MTA, 2.8 nM. In addition, in the assay with HCT116 MTAP KO cells, the “Selectivity HCT 116-WT/ HCT116 MTAP KO” value is 24.64.

`CCOc1ccc(CN(C(=O)c2ccc3nc(N)c(C)cc3c2)N(C)c2ncccn2)nc1` [Example 264, 2-amino-N-((5-ethoxypyridin-2-yl)methyl)-N',3-dimethyl-N'-(pyrimidin-2-yl)quin oline-6-carbohydrazide]: the IC50 worked out at 138 nM in the assay on HCT116 MTAP KO cells, 2480 nM in the assay with HCT116-WT cells and 1 nM on PRMT5-MTA. Further, in the assay on HCT116 MTAP KO cells, the “Selectivity HCT 116-WT/ HCT116 MTAP KO” value was found to be 17.97.

As to `C#Cc1cnc(N2CC(C)CN2C(=O)c2cc3c(cc2C)nc(N)c2cnn(C)c23)c(F)c1` (centres unmarked) [Example 494, (4-amino-1,7-dimethyl-1H-pyrazolo[4,3-c]quinolin-8-yl)(2-(5-ethynyl-3-fluoropyridin-2-yl)-4-methylpyrazolidin-1-yl)methanone], the half-maximal inhibitory concentration (IC50) in the assay on HCT116 MTAP KO cells was found to be 29 nM; in the assay on HCT116-WT cells, 1000 nM; on PRMT5-MTA, 4.6 nM. In addition, the “Selectivity HCT 116-WT/ HCT116 MTAP KO” value in the assay with HCT116 MTAP KO cells amounted to 34.62.

Consider `Cc1cc2cc(C(=O)N(Cc3ccc(C4(F)CCC4)cn3)N(C)c3ncccn3)ccc2nc1N` [Example 287, 2-amino-N-((5-(1-fluorocyclobutyl)pyridin-2-yl)methyl)-N',3-dimethyl-N'-(pyrimidin-2-yl)quinoline-6-carbohydrazide], for which the IC50 with HCT116 MTAP KO cells is 113 nM; in the assay on HCT116-WT cells, 2560 nM; on PRMT5-MTA, 2.2 nM. Moreover, the “Selectivity HCT 116-WT/ HCT116 MTAP KO” value in the assay with HCT116 MTAP KO cells stood at 22.69.

In the case of `Cc1cc2cc(C(=O)N(Cc3ccc(-c4scnc4C#N)cn3)N(C)c3ncccn3)ccc2nc1N` [Example 243, 2-amino-N-((5-(4-cyanothiazol-5-yl)pyridin-2-yl)methyl)-N',3-dimethyl-N'-(pyrimidin-2-yl)quinoline-6-carbohydrazide], the IC50 in the assay on HCT116 MTAP KO cells amounted to 6.5 nM; with HCT116-WT cells, 148 nM; on PRMT5-MTA, 3.4 nM. Further, the “Selectivity HCT 116-WT/ HCT116 MTAP KO” value with HCT116 MTAP KO cells was found to be 22.77.

As to `Cc1cc2nc(N)c3cnn(C)c3c2cc1C(=O)N1CC(C)(C)CN1c1ncccc1F` [Example 330, (4-amino-1,7-dimethyl-1H-pyrazolo[4,3-c]quinolin-8-yl)(2-(3-fluoropyridin-2-yl)-4,4-dimethylpyrazolidin-1-yl)methanone], the IC50 in the assay with HCT116 MTAP KO cells came out at 24 nM; in the assay on HCT116-WT cells, 603 nM; on PRMT5-MTA it was 13 nM. The “Selectivity HCT 116-WT/ HCT116 MTAP KO” value with HCT116 MTAP KO cells was 25.13.

For `Cc1cc2cc(C(=O)N(Cc3ccc(C(F)(F)F)cn3)N(C)c3ncccc3F)ccc2nc1N` [Example 5, 2-amino-N'-(3-fluoropyridin-2-yl)-N',3-di methyl-N-((5-(trifluoromethyl)pyridin-2-yl)methyl)quinoline-6-carbohydrazide], the IC50 amounted to 42 nM with HCT116 MTAP KO cells, 852 nM with HCT116-WT cells and 1.5 nM at PRMT5-MTA. The “Selectivity HCT 116-WT/ HCT116 MTAP KO” value in the assay on HCT116 MTAP KO cells stood at 20.29.

Regarding `Cc1cc2nc(N)c3cnn(C)c3c2cc1C(=O)N1CC(C)CN1c1ncc(-c2cscn2)cc1F` (centres unmarked) [Example 488, (4-amino-1,7-dimethyl-1H-pyrazolo[4,3-c]quinolin-8-yl)(2-(3-fluoro-5-(thiazol-4-yl)pyridin-2-yl)-4-methylpyrazolidin-1-yl)methanone], the results for the IC50 with HCT116 MTAP KO cells, in the assay with HCT116-WT cells and on PRMT5-MTA were 25 nM, 531 nM and 5.3 nM, respectively. The “Selectivity HCT 116-WT/ HCT116 MTAP KO” value with HCT116 MTAP KO cells is given as 21.24.

Consider `Cc1cc2nc(N)c3cnn(C)c3c2cc1C(=O)N1CC(OCC(F)(F)F)CN1c1ncccc1F` (centres unmarked) [Example 452, (4-amino-1,7-dimethyl-1H-pyrazolo[4,3-c]quinolin-8-yl)(2-(3-fluoropyridin-2-yl)-4-(2,2,2-trifluoroethoxy)pyrazolidin-1-yl) methanone], for which the IC50 is 45 nM in the assay on HCT116 MTAP KO cells, 1420 nM in the assay on HCT116-WT cells and 7.3 nM on PRMT5-MTA. For the same compound, the “Selectivity HCT 116-WT/ HCT116 MTAP KO” value with HCT116 MTAP KO cells is listed as 31.67.

The term IC50 denotes the concentration at which inhibition is half-maximal.

(Values after EP4745134A1 (Jiangsu Yahong Meditech Co., Ltd., priority 2023, dated 2025).)
